Test results published in US20260272907A1, “Therapeutic Tyrosine Kinase Inhibitors for Multiple Sclerosis” (Principia Biopharma Inc., priority 2022, published 2026).

Assays:
CYP3A = assay: Preclinical drug metabolism studies: CYP3A; format: in vitro ADME
Source text: See Table 12 for the list of drugs not to be used.

[1] = system: patients with relapsing multiple sclerosis; assay: Long-term safety extension: paramagnetic rim lesions (PRL) count (MRI); format: in vivo, human
Description: (§1) In the current open-label extension Part B, all patients receive 60 mg/day. MRI outcomes include numbers of new Gd-enhancing and new/enlarging T2 lesions, T2 lesion volume change from baseline, slowly evolving lesions (SEL), and paramagnetic rim lesions (PRL).

[2] = system: patients with relapsing multiple sclerosis; assay: Long-term safety extension: number of new or enlarging T2 lesions (MRI); format: in vivo, human
Description: as §1
(§2) The Week 0 value is from the last MRI obtained in the dose-finding study if performed within 6 weeks prior to Day 1 of the long-term safety study For some patients the Week 0 value began after a gap period ranging from 0-21 weeks. For patients where the gap period was 0 weeks, the Week 0 value began immediately after the completion of Week 16 of the dose-finding study. For patients where the gap period was greater than 6 weeks a new MRI was obtained prior to Day 1 of the long-term safety study.
(§3) If from Week 16 of the dose-finding study (Cohort 2), it is also included in Week 12. If from Week 16 of the dose-finding study (Cohort 1), it is after 4 weeks placebo run out.

[3] = system: patients with relapsing multiple sclerosis; assay: Long-term safety extension: number of new T1 non-enhancing (hypointense) lesions (MRI); format: in vivo, human
Description: as §1, §2, §3

CD19+ B-cell = assay: Phase 1: absolute CD19+ B-cell counts
[4] = system: patients with relapsing multiple sclerosis; assay: Long-term safety extension: T2 lesion volume change from baseline (MRI); format: in vivo, human; conditions: for Volume of new or enlarging T2 lesions, Mean (SD): in cm³
Description: as §1, §2, §3

[5] = system: patients with relapsing multiple sclerosis; assay: Phase 2b dose-finding study: clinical laboratory tests, ECG, vital signs (PCSAs, ALT levels); format: in vivo, human
Description: Temperature, pulse rate, respiratory rate, and blood pressure are assessed. The same method for temperature measurement should be used throughout the study. Blood pressure and pulse measurements are assessed in sitting or supine position with a completely automated device. Same position measurements should be used throughout the study for the same participant. Manual techniques are used only if an automated device is not available. Caffeinated drinks to be avoided before blood pressure measurements. Blood pressure and pulse measurements should be preceded by at least 5 minutes of rest for the participant in a quiet setting without distractions (e.g., television, cell phones). Vital signs (to be taken before blood collection for laboratory tests) consist of 1 pulse, 3 blood pressure measurements (3 consecutive blood pressure readings are recorded at intervals of at least 1 minute), and respiratory rate. The average of the 3 blood pressure readings is recorded.
Single twelve-lead ECGs are obtained as outlined in the SOA (Table 1) using an ECG machine that automatically calculates the heart rate and measures PR, QRS, QT, and QTc intervals. At least one longer rhythm monitoring recording needs to be part of each ECG testing. The ECG is reviewed by a cardiologist for confirmation of abnormality and clinical evaluation. Refer to Example 1.4E for QTc withdrawal criteria and any additional QTc readings that may be necessary.
See Example 1.16 for the list of clinical laboratory tests to be performed and to the SoA (Table 1) for the timing and frequency. The Investigator will review the laboratory report, document this review, and record any clinically relevant changes occurring during the study in the AE section of the eCRF. Clinically significant abnormal laboratory findings are those that are not associated with the underlying disease, unless judged by the Investigator to be more severe than expected for the participant's condition. […] All protocol-required laboratory assessments, as defined in Example 1.16, are conducted in accordance with the laboratory manual and the SoA (Table 1). If laboratory values from non-protocol specified laboratory assessments performed at the institution's local laboratory require a change in participant management or are considered clinically significant by the Investigator (e.g., SAE or AE or dose modification), then the results are recorded in the eCRF.
The following definitions are applied to laboratory parameters, ECG, and vital sign results: • Potentially clinically significant abnormality (PCSA) values are defined as abnormal values considered medically important by the Sponsor according to predefined criteria/thresholds based on literature review and are defined by the Sponsor for clinical laboratory tests and vital signs. • Potentially clinically significant abnormality criteria determine which participants had at least 1 PCSA during the on-treatment period, taking into account all evaluations performed during the on-treatment period including unscheduled or repeated evaluations. The number of all such participants is the numerator for the on-treatment PCSA percentage
Additional tests are performed at any time during the study as determined necessary by the Investigator or required by local regulations.

## C=CC(=O)N1CCC[C@@H](n2c(=O)n(-c3ccc(Oc4ccccc4)cc3)c3c(N)nccc32)C1 [the BTK inhibitor, (R)-1-(1-acryloylpiperidin-3-yl)-4-amino-3-(4-phenoxyphenyl)-1H-imidazo[4,5-c]pyridin-2(3H)-one]
CYP3A
  Substrate of CYP3A isoenzyme: substrate
[1]; W96 vs baseline, all arms
  Patients in whom PRL count remained unchanged: 18 patients
[1]; all arms
  Patients with 1 PRL at baseline but none at W96: 2 patients
[1]; none in the 60/60 mg arm
  Patients with 1-3 additional PRL at W96 vs baseline: 3 patients
[2]; 5/60 mg, Week 0
  Number of new or enlarging T2 lesions, Mean (SD): 3.97 (8.47)
  Number of new or enlarging T2 lesions, Median: 0.00
[2]; 5/60 mg, Week 12
  Number of new or enlarging T2 lesions, Mean (SD): 1.68 (3.49)
  Number of new or enlarging T2 lesions, Median: 0.00
[2]; 15/60 mg, Week 0
  Number of new or enlarging T2 lesions, Mean (SD): 3.52 (6.51)
  Number of new or enlarging T2 lesions, Median: 1.00
[2]; 15/60 mg, Week 12
  Number of new or enlarging T2 lesions, Mean (SD): 1.32 (1.83)
  Number of new or enlarging T2 lesions, Median: 1.00
[2]; 30/60 mg, Week 0
  Number of new or enlarging T2 lesions, Mean (SD): 3.41 (7.32)
  Number of new or enlarging T2 lesions, Median: 0.00
[2]; 30/60 mg, Week 12
  Number of new or enlarging T2 lesions, Mean (SD): 1.34 (4.97)
  Number of new or enlarging T2 lesions, Median: 0.00
[2]; 60/60 mg, LTS through W96
  New/enlarging T2 lesion counts: remained low
[2]; 60/60 mg, Week 0
  Number of new or enlarging T2 lesions, Mean (SD): 1.10 (1.87)
  Number of new or enlarging T2 lesions, Median: 0.00
[2]; 60/60 mg, Week 12
  Number of new or enlarging T2 lesions, Mean (SD): 0.29 (0.69)
  Number of new or enlarging T2 lesions, Median: 0.00
[2]; All (N = 125), Week 0
  Number of new or enlarging T2 lesions, Mean (SD): 3.00 (6.56)
  Number of new or enlarging T2 lesions, Median: 0.00
[2]; All (N = 125), Week 12
  Number of new or enlarging T2 lesions, Mean (SD): 1.16 (3.21)
  Number of new or enlarging T2 lesions, Median: 0.00
[3]; 5/60 mg, Week 0
  Number of new T1 non-enhancing (hypointense) lesions, Mean (SD): 0.23 (0.43)
  Number of new T1 non-enhancing (hypointense) lesions, Median: 0.00
[3]; 5/60 mg, Week 12
  Number of new T1 non-enhancing (hypointense) lesions, Mean (SD): 0.19 (0.60)
  Number of new T1 non-enhancing (hypointense) lesions, Median: 0.00
[3]; 15/60 mg, Week 0
  Number of new T1 non-enhancing (hypointense) lesions, Mean (SD): 0.61 (1.45)
  Number of new T1 non-enhancing (hypointense) lesions, Median: 0.00
[3]; 15/60 mg, Week 12
  Number of new T1 non-enhancing (hypointense) lesions, Mean (SD): 0.26 (0.73)
  Number of new T1 non-enhancing (hypointense) lesions, Median: 0.00
[3]; 30/60 mg, Week 0
  Number of new T1 non-enhancing (hypointense) lesions, Mean (SD): 0.31 (1.09)
  Number of new T1 non-enhancing (hypointense) lesions, Median: 0.00
[3]; 30/60 mg, Week 12
  Number of new T1 non-enhancing (hypointense) lesions, Mean (SD): 0.09 (0.39)
  Number of new T1 non-enhancing (hypointense) lesions, Median: 0.00
[3]; 60/60 mg, Week 0
  Number of new T1 non-enhancing (hypointense) lesions, Mean (SD): 0.06 (0.36)
  Number of new T1 non-enhancing (hypointense) lesions, Median: 0.00
[3]; 60/60 mg, Week 12
  Number of new T1 non-enhancing (hypointense) lesions, Mean (SD): 0.03 (0.18)
  Number of new T1 non-enhancing (hypointense) lesions, Median: 0.00
[3]; All (N = 125), Week 0
  Number of new T1 non-enhancing (hypointense) lesions, Mean (SD): 0.30 (0.96)
  Number of new T1 non-enhancing (hypointense) lesions, Median: 0.00
[3]; All (N = 125), Week 12
  Number of new T1 non-enhancing (hypointense) lesions, Mean (SD): 0.14 (0.52)
  Number of new T1 non-enhancing (hypointense) lesions, Median: 0.00
CD19+ B-cell
  Dose at which the dose-response for the increase in circulating B-cells is maximal: approximately 30 mg once daily
CD19+ B-cell; observed maximally at Day 4
  Dose-dependent increase of absolute CD19+ B-cell counts relative to baseline: up to 80%
[4]; 5/60 mg, Week 0
  Volume of new or enlarging T2 lesions, Median: 0.09 cm³
  Volume of new or enlarging T2 lesions, Mean (SD): 1.28 (2.57)
[4]; 5/60 mg, Week 12
  Volume of new or enlarging T2 lesions, Median: 0.2 cm³
  Volume of new or enlarging T2 lesions, Mean (SD): 1.05 (1.70)
[4]; 15/60 mg, Week 0
  Volume of new or enlarging T2 lesions, Median: 0.08 cm³
  Volume of new or enlarging T2 lesions, Mean (SD): 0.72 (1.86)
[4]; 15/60 mg, Week 12
  Volume of new or enlarging T2 lesions, Median: 0.2 cm³
  Volume of new or enlarging T2 lesions, Mean (SD): 1.09 (1.61)
[4]; 30/60 mg, Week 0
  Volume of new or enlarging T2 lesions, Median: 0 cm³
  Volume of new or enlarging T2 lesions, Mean (SD): 0.48 (1.59)
[4]; 30/60 mg, Week 12
  Volume of new or enlarging T2 lesions, Median: 0.04 cm³
  Volume of new or enlarging T2 lesions, Mean (SD): 0.69 (1.30)
[4]; 60/60 mg arm
  T2 lesion volume change, W96 vs baseline, mean±SD: 0.38±2.11 cm3
[4]; 60/60 mg, Week 0
  Volume of new or enlarging T2 lesions, Median: 0 cm³
  Volume of new or enlarging T2 lesions, Mean (SD): 0.18 (0.38)
[4]; 60/60 mg, Week 12
  Volume of new or enlarging T2 lesions, Median: 0.06 cm³
  Volume of new or enlarging T2 lesions, Mean (SD): 0.26 (0.48)
[4]; All (N = 125), Week 0
  Volume of new or enlarging T2 lesions, Median: 0 cm³
  Volume of new or enlarging T2 lesions, Mean (SD): 0.67 (1.81)
[4]; All (N = 125), Week 12
  Volume of new or enlarging T2 lesions, Median: 0.12 cm³
  Volume of new or enlarging T2 lesions, Mean (SD): 0.80 (1.39)
[5]; 30 mg group, Week 8 visit
  ALT level of the participant with AESI: 105 U/L
[5]; 30 mg group, within 4 days after the Week 8 visit, back to normal level
  ALT level of the participant with AESI: 32 U/L
[5]; 60 mg group, Week 4 visit, ULN 34 U/L
  ALT level of the participant with AESI: 107 U/L
[5]; 60 mg group, Week 12, back to normal level
  ALT level of the participant with AESI: 28 U/L
[5]; reported in multiple treatment groups
  PCSAs related to vital signs, labs and ECGs: relation to dose: no dose relationship
